Patent US8937078B2, “Quinazolinones as prolyl hydroxylase inhibitors” (Janssen Pharmaceutica NV, priority 2009, dated 2015)

How the values were obtained:
human PHD2 (PHD2181-417) = molecular target: T1, human PHD2 (PHD2181-417) (Homo sapiens, UniProt Q9GZT9); test: PHD enzymatic assay ([14C]-succinic acid production); type: biochemical; details: PHD2181-417, HIF-1α peptide 10 μM, average of results; read-out: Enzyme pIC50 (converted)
T1 construct: Smt (SUMO) tag (cleaved yes); made in house; host or cells: E. coli BL21 (pBAD vector)
Method: Protein production was achieved by expression in BL21 cells grown in Terrific Broth containing 100 μg/ml ampicillin. Cell cultures were inoculated at 37° C. and grown to an OD600 of 0.8. Cultures were induced with 0.1% arabinose and grown overnight at 20° C. with continuous shaking at 225 rpm. Cells were then harvested by centrifugation and stored at −80° C. Cell pellets were suspended in Buffer A (50 mM Tris-HCl pH 7.2, 100 mM NaCl, 100 mM L-arginine, 1 mM TCEP, 0.05% (w/v) NP-40, 50 mM imidazole) followed by the addition of lysozyme and benzonase. Cells were lysed by sonication and the lysate was cleared by centrifugation (15,000 rpm, 90 min, 4° C.). The protein was purified by nickel affinity chromatography using a HisTrap Crude FF column (GE Healthcare). Samples were eluted in Buffer A with a 50-200 mM imidazole gradient. […] The flow-through was then dialyzed into 50 mM MES pH 6.0, 1 mM TCEP, 5 mM NaCl for ion exchange chromatography on a HiTrap SP Cation Exchange column (GE Healthcare). […] Fractions were pooled for further purification by size exclusion chromatography over a Superdex 75 Size Exclusion Column (GE Healthcare). Final protein was concentrated to 4 mg/ml and dialyzed in 10 mM PIPES pH 7.0, 100 mM NaCl, 0.5 mM TCEP.
(10 μM, California Peptide Research Inc., Napa, Calif.), and [5-^14C]-2-oxoglutaric acid (50 mCi/mmol, Moravek Chemicals, Brea, Calif.) in reaction buffer (40 mM Tris-HCl, pH 7.5, 0.4 mg/ml catalase, 0.5 mM DTT, 1 mM ascorbate) for 10 minutes. The reaction was stopped by addition of 50 μl of 70 mM H3PO4 and 50 μl of 500 mM NaH2PO4, pH3.2. Detection of [^14C]-succinic acid was achieved by separating from [5-^14C]-2-oxoglutaric acid by incubating the reaction mixture with 100 μl of 0.16 M DNP prepared in 30% perchloric acid. Next, 50 μl of unlabeled 20 mM 2-oxoglutaric acid/20 mM succinic acid, serving as carrier for the radioactivity, was added to the mixture, and was allowed to proceed for 30 minutes at room temperature. The reaction was then incubated with 50 μl of 1 M 2-oxoglutaric acid for 30 additional minutes at room temperature to precipitate the excess DNP. The reaction was then centrifuged at 2800×g for 10 minutes at room temperature to separate [^14C]-succinic acid in the supernatant from the precipitated [^14C]-dinitrophenylhydrazone. Fractions of the supernatant (400 μl) were counted using a beta counter (Beckman Coulter, Fullerton, Calif.).

Hep-3B cells = test: Cellular assay: erythropoietin secretion in Hep-3B cells; type: cell-based, human; details: Homo sapiens, Hep3B, 100 μM compound, 24 hours, percent of EPO secretion relative to assay control compound 7-[(4-Chloro-phenyl)-(5-methyl-isoxazol-3-ylamino)-methyl]-quinolin-8-ol, read-out: Cellular % EPO Stimulation
Method: Hep-3B cells (ATCC, Manassas, Va.) were plated in 96-well plates at 20,000 cells per well in 100 μl of DMEM containing 10% fetal bovine serum, 1% non-essential amino acids, 50 IU/mL of penicillin and 50 μg/mL of streptomycin (all cell culture reagents from Invitrogen, Carlsbad, Calif.). Twenty-four hours after plating, compounds were added and incubated for an additional 24 hours. All compounds were tested under saturating conditions with final compound concentrations at 100 μM. Fifty microliters of the supernatant was then transferred to a human Hypoxia assay kit (Meso-Scale Discovery, Gaithersburg, Md.). Erythropoietin in the supernatant was detected according to the manufacturer's instructions as follows. EPO detection plates were blocked with 3% BSA in PBS overnight and 50 μl of the supernatant was incubated at room temperature in an orbital shaker for 2 h. Twenty-five microliters of 0.5 μg/ml anti-EPO detection antibody was added for 2 hours at room temperature in an orbital shaker. After 3 washes in PBS, 150 μl of 1× read buffer is added and the plate is then read on the MSD SECTOR instrument.

T1 sequence (Q9GZT9 181-417): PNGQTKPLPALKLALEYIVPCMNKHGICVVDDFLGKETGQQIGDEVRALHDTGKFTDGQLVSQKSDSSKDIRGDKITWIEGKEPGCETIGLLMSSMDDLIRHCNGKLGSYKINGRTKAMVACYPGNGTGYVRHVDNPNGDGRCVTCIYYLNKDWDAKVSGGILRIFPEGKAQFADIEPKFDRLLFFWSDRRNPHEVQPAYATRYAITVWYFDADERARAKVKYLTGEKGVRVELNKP

Row | SMILES | IC50 (human PHD2 (PHD2181-417)) [nM] | Emax at 100 µM (Hep-3B cells) [%]
1 | Cc1ccc(CNc2ccc3nc(-n4cc(C(=O)O)cn4)[nH]c(=O)c3c2)cc1 [Example 183, 1-[6-(4-methyl-benzylamino)-4-oxo-3,4-dihydro-quinazolin-2-yl]-1H-pyrazole-4-carboxylic acid] | 15.8 | 89
2 | Cc1ccc(-c2ccc3nc(-n4cc(C(=O)O)cn4)[nH]c(=O)c3c2)cc1 [Example 191, 1-(4-Oxo-6-p-tolyl-3,4-dihydro-quinazolin-2-yl)-1H-pyrazole-4-carboxylic acid] | 20 | 31
3 | O=C(O)c1cnn(-c2nc3ccc(N4CCCCC4)cc3c(=O)[nH]2)c1 [Example 124, 1-(4-Oxo-6-piperidin-1-yl-3,4-dihydro-quinazolin-2-yl)-1H-pyrazole-4-carboxylic acid] | 39.8 | 71
4 | O=C(O)c1cnn(-c2nc3cc(Cl)c(-c4ccccc4)cc3c(=O)[nH]2)c1 [Example 68, 1-(7-Chloro-4-oxo-6-phenyl-3,4-dihydro-quinazolin-2-yl)-1H-pyrazole-4-carboxylic acid] | 20 | 59
5 | Cc1cc(C)c2c(=O)[nH]c(-n3cc(C(=O)O)cn3)nc2c1 [Example 145, 1-(5,7-Dimethyl-4-oxo-3,4-dihydro-quinazolin-2-yl)-1H-pyrazole-4-carboxylic acid] | 398 | 16
6 | O=C(O)c1cnn(-c2nc3cc(Cl)c([S+]([O-])C(F)(F)F)cc3c(=O)[nH]2)c1 (centres unmarked) [Example 160, 1-(7-Chloro-4-oxo-6-trifluoromethanesulfinyl-3,4-dihydro-quinazolin-2-yl)-1H-pyrazole-4-carboxylic acid] | 39.8 | 13
7 | O=C(O)c1cnn(-c2nc3ccc(Oc4cccnc4)cc3c(=O)[nH]2)c1 [Example 65, 1-[4-Oxo-6-(pyridin-3-yloxy)-3,4-dihydro-quinazolin-2-yl]-1H-pyrazole-4-carboxylic acid] | 25.1 | 42
8 | O=C(O)c1cnn(-c2nc3cc(C(F)(F)F)ccc3c(=O)[nH]2)c1 [Example 2, 1-(7-Trifluoromethyl-4-oxo-3,4-dihydro-quinazolin-2-yl)-1H-pyrazole-4-carboxylic acid] | 158 | 21
9 | O=C(O)c1cnn(-c2nc3cc(OC(F)(F)F)ccc3c(=O)[nH]2)c1 [Example 148, 1-(4-Oxo-7-trifluoromethoxy-3,4-dihydro-quinazolin-2-yl)-1H-pyrazole-4-carboxylic acid] | 126 | 10
10 | O=C(O)c1cnn(-c2nc3cc(Cl)c(N4CCc5ccc(Br)cc5C4)cc3c(=O)[nH]2)c1 [Example 85, 1-[6-(7-Bromo-3,4-dihydro-1H-isoquinolin-2-yl)-7-chloro-4-oxo-3,4-dihydro-quinazolin-2-yl]-1H-pyrazole-4-carboxylic acid] | 25.1 | 49
11 | CN1CCN(c2ccc3nc(-n4cc(C(=O)O)cn4)[nH]c(=O)c3c2)CC1 [Example 103, 1-[6-(4-methyl-piperazin-1-yl)-4-oxo-3,4-dihydro-quinazolin-2-yl]-1H-pyrazole-4-carboxylic acid] | 63.1 | 30
12 | O=C(O)c1cnn(-c2nc3ccc(-c4ccc(Cl)cc4)cc3c(=O)[nH]2)c1 [Example 194, 1-[6-(4-Chloro-phenyl)-4-oxo-3,4-dihydro-quinazolin-2-yl]-1H-pyrazole-4-carboxylic acid] | 20 | 62
13 | O=C(O)c1cnn(-c2nc3cc(F)c(Oc4ccc5ccccc5c4)cc3c(=O)[nH]2)c1 [Example 52, 1-[7-Fluoro-6-(naphthalen-2-yloxy)-4-oxo-3,4-dihydro-quinazolin-2-yl]-1H-pyrazole-4-carboxylic acid] | 39.8 | 76
14 | O=C(O)c1cnn(-c2nc3ccc(Oc4cccc(Cl)c4Cl)cc3c(=O)[nH]2)c1 [Example 60, 1-[6-(2,3-dichloro-phenoxy)-4-oxo-3,4-dihydro-quinazolin-2-yl]-1H-pyrazole-4-carboxylic acid] | 31.6 | 70
15 | O=C(O)c1cnn(-c2nc3ccc(-c4ccccc4OC(F)(F)F)cc3c(=O)[nH]2)c1 [Example 202, 1-[4-Oxo-6-(2-trifluoromethoxy-phenyl)-3,4-dihydro-quinazolin-2-yl]-1H-pyrazole-4-carboxylic acid] | 15.8 | 29
16 | O=C(O)c1cnn(-c2nc3c(Br)cccc3c(=O)[nH]2)c1 [Example 11, 1-(8-Bromo-4-oxo-3,4-dihydro-quinazolin-2-yl)-1H-pyrazole-4-carboxylic acid] | 158 | 40
17 | Cc1cc(C)cc(Oc2cc3c(=O)[nH]c(-n4cc(C(=O)O)cn4)nc3cc2C)c1 [Example 89, 1-[6-(3,5-dimethyl-phenoxy)-7-methyl-4-oxo-3,4-dihydro-quinazolin-2-yl]-1H-pyrazole-4-carboxylic acid] | 25.1 | 137
18 | O=C(O)c1cnn(-c2nc3ccc(Oc4ccccc4F)cc3c(=O)[nH]2)c1 [Example 33, 1-[6-(2-Fluoro-phenoxy)-4-oxo-3,4-dihydro-quinazolin-2-yl]-1H-pyrazole-4-carboxylic acid] | 31.6 | 56
19 | CC(C)(C)c1ccc(Sc2cc3c(=O)nc(-n4cc(C(=O)O)cn4)[nH]c3cc2Cl)cc1 [Example 24, 1-[6-(4-tert-Butyl-phenylsulfanyl)-7-chloro-4-oxo-1,4-dihydro-quinazolin-2-yl]-1H-pyrazole-4-carboxylic acid] | 25.1 | 50
20 | CN(C)c1cccc2nc(-n3cc(C(=O)O)cn3)[nH]c(=O)c12 [Example 151, 1-(5-Dimethylamino-4-oxo-3,4-dihydro-quinazolin-2-yl)-1H-pyrazole-4-carboxylic acid] | 631 | 11
21 | O=C(O)c1cnn(-c2nc3cc(Sc4ccccc4Cl)ccc3c(=O)[nH]2)c1 [Example 80, 1-[7-(2-Chloro-phenylsulfanyl)-4-oxo-3,4-dihydro-quinazolin-2-yl]-1H-pyrazole-4-carboxylic acid] | 31.6 | 5
22 | O=C(O)c1cnn(-c2nc(=O)c3cc(Sc4ccccc4)c(Cl)cc3[nH]2)c1 [Example 25, 1-(7-Chloro-4-oxo-6-phenylsulfanyl-1,4-dihydro-quinazolin-2-yl)-1H-pyrazole-4-carboxylic acid] | 39.8 | 68
23 | CCc1ccc2nc(-n3cc(C(=O)O)cn3)[nH]c(=O)c2c1 [Example 128, 1-(6-Ethyl-4-oxo-3,4-dihydro-quinazolin-2-yl)-1H-pyrazole-4-carboxylic acid] | 39.8 | 53
24 | O=C(O)c1cnn(-c2nc3ccc(S(=O)(=O)N4CCCC4)cc3c(=O)[nH]2)c1 [Example 161, 1-[4-Oxo-6-(pyrrolidine-1-sulfonyl)-3,4-dihydro-quinazolin-2-yl]-1H-pyrazole-4-carboxylic acid] | 39.8 | 17
25 | O=C(O)c1cnn(-c2nc3cc(-c4ccccc4)ccc3c(=O)[nH]2)c1 [Example 184, 1-(4-Oxo-7-phenyl-3,4-dihydro-quinazolin-2-yl)-1H-pyrazole-4-carboxylic acid] | 79.4 | 12
